Assay results taken from patent US6677324B1, “Combination preparation of estrogen and anti-estrogen” (Schering Aktiengesellschaft, priority 1998, dated 2004).

Experiments:
[1] = tested on: uterus and bone; experiment: Selective bone action test: uterus weight, uterine epithelium depth and trabecular bone density of proximal tibia in ovarectomized rats; type: in vivo, rat; conditions: combination with 17β-oestradiol, ovarectomized rats 3 months old, treated 28 days, FIGS. 1-3
Procedure: (§1) In the FIG. 1 means: control (only solvent), 2: 0.3 μg of oestradiol, 3: 75 μg of test substance, 4: 75 μg of test substance+0.03 μg of oestradiol, 5: 75 μg of test substance+0.1 μg of oestradiol, 6: 75 μg of test substance+0.3 μg of oestradiol, 7: 75 μg of test substance+1.0 μg of oestradiol, 8: 75 μg of test substance+3.0 μg of oestradiol.
as §1, with “μg of oestradibl, 3: 75” for “μg of oestradiol, 3: 75”
The doses of the oestrogen and antioestrogen to be used for the selective bone action test must be established to begin with in preliminary investigations.
The dose of the antioestrogen to be used is determined by an antiuterus growth test in the oestradiol-substituted, ovarectomized rat. […]
After 28 days, the animals are killed and the uterus weight, as well as the trabecular bone density in the proximal tibia, is measured. The uterus weight is determined by weighing the uterus moist weight immediately after organ removal. The trabecular bone density is determined ex vivo by bone density measurements in the secondary spongiosa of the proximal tibia using a QCT (Stratec XCT 960A).

[2] = tested on: central nervous system; conditions: Biegon et al. 1996; cited from earlier work

CN(CCCCC[C@@H]1Cc2cc(O)ccc2[C@@H]2[C@@H]1[C@@H]1CC[C@H](O)[C@@]1(C)C[C@@H]2F)CCCSCCCC(F)(F)C(F)(F)F [Example 1, 11β-fluoro-7α-{5-[N-methyl-N-3-(4,4,5,5,5-pentafluoropentylthio)propylamino]pentyl}-oestra-1,3,5(10)-triene-3,17β-diol]
selective action of the combination on bone versus uterus [1]: selectively active

CC/C(=C(\c1ccccc1)c1ccc(OCCN(C)C)cc1)c1ccccc1 [tamoxifen]
action in the central nervous system [2]: acts there as an oestroaenic antagonist
